“And” between values parts separate entries of the source, which are not always exact repeats. Equal values may be shown once. “Also recorded” adds a separate entry of the source. Read-outs that look alike come from different tables or passages of the source.
Columns and labels:
[1] = tested on: PD-L1 (CD274) mRNA in H3122 cells; assay: TaqMan RT PCR of PD-L1 mRNA in H3122 cells in vitro; format: cell-based, human; details: H3122 (NSCLC with ALK translocation) in vitro; FIG. 17
Experimental: (§1) TaqMan RT PCR assays were developed to detect changes of expression levels of PD-L1 (CD274) in cell lines and xenograft tumors. mRNA was isolated from frozen cell pellets or tumor fragments using the Qiagen RNeasy Mini kit. Isolated RNA was frozen at −80° C. RNA quality was checked and RNA was quantified using a 2100 Agilent Bioanalyzer following the protocol for the Agilent RNA 6000 Nano Kit. cDNA was prepared using a High Capacity RNA—to cDNA Kit (Applied Biosystems).
(§2) Real-time PCR reactions were carried out in 20 μl total volume, including 10 μl of Universal PCR master mix (Applied Biosystems), 1 μl of human PD-L1 (CD274) probe/primer set (Applied Biosystems), and 8 μl of cDNA. Each sample was run in triplicate. The amount of cDNA produced from 25-50 ng of RNA in the reverse transcription reaction was used in each PCR reaction. Due to difference in mRNA levels between PD-L1 and GAPDH, the two real-time PCR reactions were done in separate tubes using same amount of cDNA. The real-time PCR reaction was run on the C1000 Thermal Cycle (BioRad) with the cycle program as follows: a 10 minute incubation at 95° C. followed by 40 cycles of 95° C. for 15 seconds and 60° C. for 1 minute. After the reaction was complete, the PD-L1 average Ct was normalized relative to each Ct value from the GAPDH reference reaction. Each normalized logarithmic value was then converted into a linear value.

[2] = tested on: PD-L1 (CD274) mRNA in LOXIMV1 tumors; assay: PD-L1 mRNA in LOXIMV1 tumor xenograft model; format: in vivo, human; details: tumor xenograft model bearing LOXIMV1 (BRAF mutant melanoma); FIG. 18
Experimental: as §1, §2

[3] = tested on: PD-L1 (CD274) surface expression in EBC-1 cells; assay: Flow cytometry of PD-L1 surface expression in EBC-1 cells in vitro; format: cell-based, human; details: EBC-1 cells (NSCLC with cMET amplification); 10, 100, 1000 nM; 24, 48, 72 hours; vs DMSO; FIG. 15
Experimental: PD-L1 (CD274) expression was analyzed in cancer cell lines treated with Compound A17. Cells were obtained from ATCC and cultured in vitro following ATCC directions. The cell lines used were previously characterized by the Cancer Cell Line Encyclopedia Project (http://www.broadinstitute.org/ccle/home).
Cells plated in six-well culture plates were treated with the Compound A17 at different concentrations (10 nM, 100 nM, and 1000 nM) for 24, 48 and 72 hours. Equal amount of vehicle (DMSO) was used as a control. Cells were washed with PBS and then harvested using a cell scraper.
For each reaction, 0.5-1×10^6 cells were stained with 20 μL of anti-human monoclonal PD-L1— PE antibody, clone M1H1 (BD) for 30-60 minutes at 4° C. Cells were washed twice and data was acquired using a Canto II with FACSDiva software (BD Bioscience). Data analysis was performed using FlowJo software (Tree Star). Mean fluorescence intensity (MFI) was determined by gating on single cells. Unstained cells were used as a gating control.

[4] = tested on: PD-L1 (CD274) mRNA in Hs.746.T tumor; assay: PD-L1 mRNA in Hs.746.T tumor xenograft; format: in vivo, human; details: Hs.746.T tumor (gastric cancer, cMET amplification & mutation) xenograft; FIG. 16
Experimental: as §1, §2

[5] = tested on: PD-L1 (CD274) mRNA in HEYA8 tumors; assay: PD-L1 mRNA in HEYA8 tumor xenograft model; format: in vivo, human; details: tumor xenograft model bearing HEYA8 (KRAF mutant ovarian cancer); FIG. 19
Experimental: as §1, §2

[6] = tested on: PD-L1 (CD274) mRNA in UKE-1 tumors; assay: PD-L1 mRNA in UKE-1 tumor xenograft model; format: in vivo, human; details: tumor xenograft model bearing UKE-1 (MPN line with JAK2V617F mutation); FIG. 20
Experimental: as §1, §2

[7] = tested on: interferon gamma (IFN-γ) expression; format: cell-based
[8] = tested on: CD8+ T cells; assay: Proliferation of CD8+ T cells activated with CMV peptides; format: cell-based; details: percentages of CD8+ cells that passed through at least n cell divisions (n=2, 4, 6)

Molecule: Cc1cc(Nc2ncc(Cl)c(Nc3ccccc3S(=O)(=O)C(C)C)n2)c(OC(C)C)cc1C1CCNCC1 [Compound A23, ceritinib]
- PD-L1 mRNA [1]: Significant inhibition

Molecule: COC(=O)N[C@@H](C)CNc1nccc(-c2cn(C(C)C)nc2-c2cc(Cl)cc(NS(C)(=O)=O)c2F)n1 [Compound A29, Encorafenib]
- PD-L1 mRNA [2]: Significant inhibition; also recorded: Downregulation

Molecule: CNC(=O)c1ccc(-c2cnc3ncc(Cc4ccc5ncccc5c4)n3n2)cc1F [Compound A17, 2-fluoro-N-methyl-4-(7-(quinolin-6-ylmethyl)imidazo[1,2-b][1,2,4]triazin-2-yl)benzamide]
- surface expression of PD-L1 (flow cytometry) [3]: Significant inhibition; also recorded: significant downregulation
- PD-L1 expression (mRNA) [4]: Inhibition

Molecule: Cn1cnc2c(F)c(Nc3ccc(Br)cc3F)c(C(=O)NOCCO)cc21 [Compound A34, Binimetinib]
- PD-L1 mRNA [5]: Significant inhibition; also recorded: Downregulation

Molecule: N#CC[C@H](C1CCCC1)n1cc(-c2ncnc3[nH]ccc23)cn1 [Compound A18, Ruxolitinib Phosphate]
- PD-L1 mRNA [6]: Significant inhibition; also recorded: Downregulation

B1: BAP049: murine anti-PD-1 monoclonal antibody (antibody, V domains shown)
VH: QVQLQQSGSELVRPGASVKLSCKASGYTFTTYWMHWVRQRPGQGLEWIGNIYPGTGGSNFDEKFKNRTSLTVDTSSTTAYMHLASLTSEDSAVYYCTRWTTGTGAYWGQGTLVTVSA
VL: DIVMTQSPSSLTVTAGEKVTMSCKSSQSLLDSGNQKNFLTWYQQKPGQPPKLLIFWASTRESGVPDRFTGSGSVTDFTLTISSVQAEDLAVYYCQNDYSYPCTFGGGTKLEIK
- fold increase in IFN-γ expression [7]: 2.3±1.1 fold and 2.8±0.8 fold
- fold increase in IFN-γ expression ([7]; cells stimulated with Staphylococcal enterotoxin B (SEB) (3 pg/mL)): 2.5±2.0 fold
- proliferation of CD8+ T cells activated with CMV peptides [8]: increase proliferation
